According to patent US20230035403A1, “Method For Determining Responsiveness To Prostate Cancer Treatment” (Janssen Biotech, Inc., priority 2020, published 2023):

Legend:
[1] = tested on: autologous CD3+ Pan-T cells (CD8+ and CD4+ T cells) with peptide-pulsed CD1c+ Dendritic Cells; assay: Exogenous autologous normal donor restimulation assay (in vitro immunogenicity); assay type: cell-based, human; parameters: key to Max. Frequency of CD8+ TNFαINFγ DP / Max. Frequency of CD4+ TNFαINFγ DP: % of T cells double positive for TNFα/IFNγ; conditions: pool of overlapping 15-mer peptides, maximum across normal donors; for Maximum Fold Change Over Background CD4+ cells / Maximum Fold Change Over Background CD8+ cells / Maximum Frequency of TNFα/IFNγ Double Positive CD4+ T cells / Maximum Frequency of TNFα/IFNγ Double Positive CD8+ T cells: Table 25; for Maximum Fold Change Over Background CD4+ cells: TNFα+IFNγ+ CD4+ T cells; for Maximum Fold Change Over Background CD4+ cells / Maximum Fold Change Over Background CD8+ cells: over negative control; for Maximum Fold Change Over Background CD8+ cells: TNFα+IFNγ+ CD8+ T cells; for Max. Fold Change over background CD4+ TNFαINFγ double positive DP / Max. Fold Change over background CD8+ TNFαINFγ double positive DP / Max. Frequency of CD4+ TNFαINFγ DP / Max. Frequency of CD8+ TNFαINFγ DP: Table 28, additional neoantigens
Experimental: CD1c+ Dendritic Cells (DC) isolated from human normal PBMCs were thawed using media (IMDM (Gibco) supplemented with glutamine, HEPES, 5% human serum (Sigma), and 1× Pen-Strep). DC cells were resuspended in media supplemented with IL-4 (Peprotech, 80 ng/mL) and GM-CSF (Gibco, 80 ng/mL), plated in 6 well microplates, and rested overnight at 37° C. (5% CO2). The following day, DC cells were counted and plated in a 96 well round bottom microplate at a concentration of 30,000 viable cells per well. Lyophilized peptides (15-mer overlapping peptides) were solubilized in 100% DMSO and pooled by neoantigen to between 5 mg/mL and 20 mg/mL. Neoantigen peptides pools were added to DCs for a final concentration of 2.5 μg/mL to 10 μg/mL and rested for 2 hours at 37° C. (5% CO2). CEF Peptide Pool “Plus” (Cellular Technologies, Ltd.) was utilized as a positive control and DMSO at the same final concentration as the experimental peptides was utilized as a negative control. After 2 hours, DC cells were irradiated with 50 gray of ionizing radiation. Autologous CD3+ Pan-T cells isolated from human normal PBMCs were thawed using media. Following irradiation, autologous Pan-T cells were added to the irradiated DCs at 300,000 viable cells per well. Human IL-15 (Peprotech) was added to all wells at final concentration of 10 ng/mL.
Plates were incubated at 37° C. (5% CO2) for a total of 12 days. Media was refreshed every 2-3 days with IL-15 (10 ng/mL final concentration) and IL-2 (R&D systems, 10 IU/mL final concentration). On day 11 cells were re-stimulated with identical experimental peptide pools or controls, at same concentration as peptide stimulation on Day 1. Protein Inhibitor Cocktail (eBioscience) was added to every well and plate was incubated overnight at 37° C. (5% CO2).
(§1) On day 12, cells were stained for intracellular flow cytometry analysis. The cells were washed with PBS and stained with Live/Dead Fixable Aqua Dead Cell stain (Thermo-Fisher). Following the live/dead stain, cells were blocked using Biotin-Free Fc Receptor Blocker (Accurate Chemical & Scientific Corp). Extracellular cellular flow panel (1 μL/antibody per well in 50 μL) consisted of CD3 PerCP-Cy5.5 (Biolegend), CD4 BV421 (Biolegend), and CD8 APC-Cy7 (Biolegend). After extracellular staining, cells were fixed using Foxp3/Transcription Factor Staining Buffer Set (eBioscience) and stained for intracellular proteins (1:50 dilution) using TNFα FITC (R&D Systems) and IFNγ BV785 (Biolegend). Cells were washed and resuspended in stain buffer and analyzed using a BD Celesta flow cytometer.
Flow cytometry cell staining analysis was completed using FlowJo v10. Cells were gated on live, singlet, CD3+ cells. The CD8+ and CD4+ T cells were analyzed for TNFα/IFNγ expression and the frequency of double positive TNFα/IFNγ CD8+ and the frequency of double positive TNFα/IFNγ CD4+ T cells were recorded. Responses were assessed to be positive when the frequency of double positive TNFα/IFNγ CD8+ or TNFα/IFNγ CD4+ T cells due to stimulation with an experimental peptide pool was increased greater than or equal to 3-fold over the DMSO only negative control for that donor and at least 0.01%.
Overlapping 15-mer peptides were designed to span each neoantigen incorporated into NeoGAd20 and NeoMVA to assess their ability to activate T cells using the exogenous autologous normal donor restimulation assay described in Example 1 as pools using TNFα and IFNγ production by CD8^+ and CD4^+ T cells as a readout.
Immunogenicity of various additional identified neoantigens was assessed. Overlapping 15-mer peptides were designed to span each neoantigen similarly to what was done in Example 11 to assess their ability to activate T cells using the exogenous autologous normal donor restimulation assay described in Example 1 as pools using TNFα and IFNγ production by CD8^+ and CD4^+ T cells as a readout.

[2] = tested on: CD8+ T cells in PBMCs from patients with metastatic castrate-resistant prostate cancer; assay: Patient PBMC restimulation assay (in vitro immunogenicity of neoantigens); assay type: cell-based, human; conditions: for Immunogenic: Patient PBMC restimulation, TNFα and IFNγ production by CD8+ T cells; for Maximum fold change over negative control: TNFα+IFNγ+CD8+ T cells, highest fold change across the PBMC donors evaluated, 9 mer peptide; for Maximum frequency of TNFα^+IFNγ^+CD8^+ T cells (Percent): greatest frequency among all tested PBMC donors, negative control 0.011-0.8 depending on patient
Experimental: PBMCs from human patients with metastatic castrate-resistant prostate cancer were thawed using media (RPMI 1640 supplemented with Glutamax, 10% HI FBS, and 1× Sodium Pyruvate). Cells were counted and plated in a 96 well round bottom microplate at a concentration of 250,000 viable cells per well. Lyophilized peptides were solubilized in 100% DMSO and diluted in media to 10 μg/mL. Neoantigen peptides were added in equal volume to PBMCs for a final concentration of 5 μg/mL. CEF Peptide Pool “Plus” (Cellular Technologies, Ltd.) was utilized as a positive control and DMSO at the same final concentration as the experimental peptides was utilized as a negative control. Human IL-15 (Peprotech) was added to all wells at final concentration of 10 ng/mL.
Plates were incubated at 37° C. (5% CO2) for a total of 13 days. Media was refreshed every 2 days with IL-15 (10 ng/mL final concentration) and IL-2 (R&D systems, 10 IU/mL final concentration). On day 12, PBMCs were re-stimulated with identical experimental peptides or controls, at same concentration as peptide stimulation on Day 1. After 1-hour incubation, protein Inhibitor Cocktail (eBioscience) was added to every well and plate was incubated overnight.
as §1, with “13,” for “12,”
Flow cytometry cell staining analysis was completed using FlowJo v10. Cells were gated on live, singlet, CD3+ cells. The CD8+ T cells were analyzed for TNFα/IFNγ expression and the frequency of double positive TNFα/IFNγ CD8+ T cells was recorded. Responses were assessed to be positive when the frequency of double positive TNFα/IFNγ CD8+ T cells due to stimulation with an experimental peptide was increased greater than or equal to 2-fold over the DMSO only negative control for that patient. Peptides were analyzed in 1 to 7 patient samples.
The 9 mer fragments shown in Table 13 were assessed for their ability to activate T cells using the Patient PBMC restimulation assay described in Example 1 using TNFα and IFNγ production by CD8^+ T cells as a readout. Self-antigens shown in Table 15 were also used in the assays. […] PBMCs from ten patients were evaluated.

| Substance | Maximum Fold Change Over Background CD4+ cells [1] | Maximum Fold Change Over Background CD8+ cells [1] | Maximum Frequency of TNFα/IFNγ Double Positive CD4+ T cells [1] | Maximum Frequency of TNFα/IFNγ Double Positive CD8+ T cells [1] | Immunogenic [2] | Maximum fold change over negative control [2] | Maximum frequency of TNFα^+IFNγ^+CD8^+ T cells (Percent) [2] | Max. Fold Change over background CD4+ TNFαINFγ double positive DP [1] | Max. Fold Change over background CD8+ TNFαINFγ double positive DP [1] | Max. Frequency of CD4+ TNFαINFγ DP [1] | Max. Frequency of CD8+ TNFαINFγ DP [1] |
| --- | --- | --- | --- | --- | --- | --- | --- | --- | --- | --- | --- |
| HYKLIQQPISLFSITDRLHKTFSQLPSVHLCSITFQWGHPPIFCSTNDICVTANFCISVTFLKPCFLLHEASASQ [MS1] | 50.19 | 5.56 | 0.39 | 0.1 |  |  |  |  |  |  |  |
| GVPGDSTRRAVRRMNTF [Neoantigen P16] | 2.44 | 2.44 | 0.039 | 0.039 | Yes | 65.82 | 4.620% |  |  |  |  |
| NSKMALNSLNSIDDAQLTRIAPPRSHCCFWEVNAP [Neoantigen P35] | 3.47 | 14.44 | 0.03 | 0.26 | Yes | 2.67 | 0.064% |  |  |  |  |
| P97 (LMAQRLLLR) [Neoantigen P97] |  |  |  |  |  |  |  | 3.14 | 7.47 | 0.12 | 1.11 |
| P27 (FPVGAEGTF) [Neoantigen P27] |  |  |  |  |  |  |  | 45.38 | 7.87 | 0.05 | 0.59 |
| P37 (GVLRRLLCR) [Neoantigen P37] |  |  |  |  |  |  |  | 22.78 | 2.05 | 0.09 | 0.13 |
| P19 (IPVLTRWPL) [Neoantigen P19] |  |  |  |  |  |  |  | 6.67 | 4.76 | 0.16 | 0.15 |
| YAYKDFLWCFPFSLVFLQEIQICCHVSCLCCICCSTRICLGCLLELFLSRALRALHVLWNGFQLHCQ [MS6] | 111.97 | 4.17 | 0.87 | 0.08 |  |  |  |  |  |  |  |
| TMPAILKLQKNCLLSL [MS8] | 15.60 | 4.44 | 0.40 | 0.14 |  |  |  |  |  |  |  |
